What is called EC50 is the concentration needed to bring the measured effect to its halfway point. Read a high EC50 as lower potency in that assay.

The results in this text go back to patent US12391679B2, “Benzamide-substituted bicyclic imidazo- and pyrazolo-fused -pyridine, -pyrimide, and -pyridazine compounds for treatment of inflammatory diseases” (ONCO3R Therapeutics BV, priority 2019, dated 2025).

The subject of assay [1] is LPS triggered IL-10 secretion in monocyte-derived macrophages. Kind of assay: MdM assay: LPS-triggered IL-10 (ELISA). The settings on record: Macrophage; human MdM; LPS 200 ng/mL; supernatant after 2 h; maximal fold change vs LPS only, median of two or more assays; read-out: IL-10 FCmax median. The assay is classed as cell-based. The method, then:
SIK inhibition inhibits TNFα and increases IL-10 release in LPS triggered monocyte-derived macrophages (MdM) and dendritic cells (MdDCs) (Clark et al. 2012; Sundberg et al. 2014; Ozanne et al. 2015). This assay evaluates illustrative compounds of the invention for their inhibition of LPS-induced TNFα and LPS triggered IL-10 secretion in monocyte-derived macrophages.
PBMCs are isolated from human blood samples (buffycoats). The buffy coat is aseptically transferred into a 50 mL Falcon tube, and diluted 1/2 in PBS. Falcon tubes are filled with 20 mL Lymphoprep™, on top of which 25 mL of the buffy coat is carefully added, tubes are centrifuged for 35 min at 400 g in temperature controlled centrifuge, without brake, at 25° C. PBMCs are aspirated from the white interface layer between sample and Lymphoprep™. PBMCs are washed five times in PBS. Cells are resuspended in RPMI 1640 complete medium supplemented with 10% FBS, 1% P/S, and cell density is determined using a hematologic analyzer (Sysmex XS-500i).
PBMCs are centrifuged at 300×g for 10 min and resuspended at a density of 1.0*10^7 cells/80 μL Miltenyi buffer (PBS, pH 7.4, 1% FBS, 2 mM EDTA).
Starting from this point of the protocol all steps are performed on ice. 20 μL of CD14+ micro-beads are added per 1.0*10^7 cells, the tube is mixed and incubated for 15 min in the fridge at 4° C. Cell suspension volume is adjusted to total volume of 100 mL using Miltenyi buffer, mixed gently and subsequently centrifuged for 10 min at 300×g. Supernatant is discarded and cell pellet is resuspended in 12 mL of Miltenyi buffer.
Four LS columns are placed in the MACS Separator (magnet) from Miltenyi Biotec, and are prewet by rinsing with 3 mL of MACS buffer per column. Three mL of cell suspension is added onto the column (max 1*10^8 of labelled cells/column), and columns are subsequently washed 3 times with 3 mL of Miltenyi buffer.
The columns are removed from the magnets, and 5 mL of Miltenyi buffer are added to the column to flush out the CD14+ fraction by pushing the plunger into the column. The flushed fractions are collected in a fresh 50 mL Falcon and volume is adjusted to 30 mL using Miltenyi buffer, cells are centrifuged for 10 min at 300×g. The obtained cell pellet is resuspended in 10 mL RPMI w/o FBS, and cell density is determined using a hematologic analyser (Sysmex XS-500i). 100 000 cells are seeded per well of a 96-well plate for differentiation to MdM in RPMI 1640 medium supplemented with 10% FBS, 1% P/S and 100 ng/mL rhM-CSF. On day 5 the medium is refreshed with 100 μL RPMI 1640 medium supplemented with 10% FBS, 1% P/S and 100 ng/mL rhM-CSF.
On day 10, MdMs are triggered and compound is added.
A compound dilution plate is made in 100% DMSO by 3-fold dilution of 10 mM stock solution. An intermediate dilution plate (10× final concentration) is made by diluting the compound dilution plate 50-fold in RPMI medium.
Medium is carefully removed from cell plates using multichannel pipette, and replaced by 80 μL fresh medium. 10 μL of the 10× final concentration compound is added to the cells and incubated for 1 hour at 37° C. before addition of trigger. No trigger conditions/trigger conditions are spiked with equal final DMSO concentrations of 0.2% DMSO. 10 μL of 10×LPS (final conc. 200 ng/mL) solution are added to all wells except for the ‘no trigger wells’ where 10 μL medium is added. Supernatant is collected after 2 h (IL-10 determination) and after 20 h (TNFα determination) of LPS triggering. […]
On the technique in general: In an ELISA, binding on a coated surface is turned into a signal by an enzyme label.

The test system of assay [2] is LPS-induced TNFα in monocytes. Kind of assay: Monocytes assay: LPS-triggered TNFα (ELISA). The assay is classed as cell-based, human. The note with it: Homo sapiens, Monocyte, LPS-triggered TNFα inhibition. In a few lines: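 TNFα secretion was triggered with 200 ng/mL LPS for 4 h in human blood CD14+ monocytes after 1 h compound pretreatment at 37 °C, with 0.2% final DMSO. Supernatants were analysed by streptavidin-HRP/luminol ELISA, and percentage inhibition at each concentration was derived relative to control wells.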

A value given as a limit tells only on which side of the number the result lay.

Turning to `COc1cc(-c2cnn3cc(C(C)(C)C#N)cnc23)cc(OC(F)F)c1C(=O)N[C@@H]1C[C@@H]1F` [Cpd 231, 4-[6-(1-cyano-1-methyl-ethyl)pyrazolo[1,5-a]pyrimidin-3-yl]-2-(difluoromethoxy)-N-[(1R,2S)-2-fluorocyclopropyl]-6-methoxy-benzamide], the maximal fold induction in assay [1] lay in the range of 1.5 to 4.5. For the same compound, the EC50 in assay [2] lay in the range of 100 to 1000 nM.

`COc1cc(-c2cnn3cc(C4(C#N)CCOCC4)ccc23)cc(OC(F)F)c1C(=O)N[C@@H]1C[C@@H]1F` [Cpd 243, 4-[6-(4-cyanotetrahydropyran-4-yl)pyrazolo[1,5-a]pyridin-3-yl]-2-(difluoromethoxy)-N-[(1R,2S)-2-fluorocyclopropyl]-6-methoxy-benzamide]: in assay [1], the maximal fold induction is below 1.5. In assay [2], this compound displayed an EC50 of 100 to 1000 nM.

Regarding `COc1cc(-c2cnn3cc(C(C)(C)C#N)ccc23)cc(OC)c1C(=O)N[C@@H]1C[C@@H]1F` [Cpd 245, 4-[6-(1-cyano-1-methyl-ethyl)pyrazolo[1,5-a]pyridin-3-yl]-N-[(1R,2S)-2-fluorocyclopropyl]-2,6-dimethoxy-benzamide], the maximal fold induction in assay [1] is below 1.5. The EC50 in assay [2] was 100 to 1000 nM.

For `COc1cc(-c2cnc3cc(C(C)(C)C#N)ccn23)cc(OC(F)F)c1C(=O)NC1CC1` [Cpd 19, 4-[7-(1-cyano-1-methyl-ethyl)imidazo[1,2-a]pyridin-3-yl]-N-cyclopropyl-2-(difluoromethoxy)-6-methoxy-benzamide], in assay [1], the maximal fold induction is below 1.5. The compound further had an EC50 in assay [2] of 100 to 1000 nM.

For the compound `COc1cc(-c2cnn3cc(C(C)(C)CO)ccc23)cc(OC(F)F)c1C(=O)N[C@@H]1C[C@@H]1F` [Cpd 242, 2-(difluoromethoxy)-N-[(1R,2S)-2-fluorocyclopropyl]-4-[6-(2-hydroxy-1,1-dimethyl-ethyl)pyrazolo[1,5-a]pyridin-3-yl]-6-methoxy-benzamide], the maximal fold induction in assay [1] was below 1.5. The EC50 in assay [2] lay in the range of 0.1 to 100 nM.

As for `COc1cc(-c2cnn3cc(C(C)(C)C#N)ccc23)cc(OC(F)F)c1C(=O)NC1CC1` [Cpd 208, 4-[6-(1-cyano-1-methyl-ethyl)pyrazolo[1,5-a]pyridin-3-yl]-N-cyclopropyl-2-(difluoromethoxy)-6-methoxy-benzamide], the maximal fold induction in assay [1] was below 1.5. The EC50 in assay [2] was in the range of 0.1 to 100 nM.

With `COc1cc(-c2cnn3cc(C(C)(C)N)ccc23)cc(OC(F)F)c1C(=O)N[C@@H]1C[C@@H]1F` [Cpd 256, 4-[6-(1-amino-1-methyl-ethyl)pyrazolo[1,5-a]pyridin-3-yl]-2-(difluoromethoxy)-N-[(1R,2S)-2-fluorocyclopropyl]-6-methoxy-benzamide], the maximal fold induction in assay [1] fell in the range of 1.5 to 4.5. This compound also came in with an EC50 in assay [2] of 100 to 1000 nM.

Turning to `COc1cc(-c2cnn3cc(C4(C(N)=O)CCC4)ccc23)cc(OC(F)F)c1C(=O)N[C@@H]1C[C@@H]1F` [Cpd 254, 4-[6-(1-carbamoylcyclobutyl)pyrazolo[1,5-a]pyridin-3-yl]-2-(difluoromethoxy)-N-[(1R,2S)-2-fluorocyclopropyl]-6-methoxy-benzamide], the maximal fold induction in assay [1] was below 1.5. In addition, the EC50 in assay [2] lay in the range of 100 to 1000 nM.

As for `COc1cc(-c2cnn3cc(C4(N)CCC4)ccc23)cc(OC(F)F)c1C(=O)N[C@@H]1C[C@@H]1F` [Cpd 261, 4-[6-(1-aminocyclobutyl)pyrazolo[1,5-a]pyridin-3-yl]-2-(difluoromethoxy)-N-[(1R,2S)-2-fluorocyclopropyl]-6-methoxy-benzamide], in assay [1], the maximal fold induction is below 1.5. The EC50 in assay [2] lay within 100 to 1000 nM.

For `COc1cc(-c2cnc3cc(C(C)(C)C#N)cnn23)cc(OC(F)F)c1C(=O)N[C@@H]1C[C@@H]1F` [Cpd 228, 4-[7-(1-cyano-1-methyl-ethyl)imidazo[1,2-b]pyridazin-3-yl]-2-(difluoromethoxy)-N-[(1R,2S)-2-fluorocyclopropyl]-6-methoxy-benzamide], in assay [1], the maximal fold induction is below 1.5. Besides, in assay [2], the EC50 was in the range of 100 to 1000 nM.

For the compound `COc1cc(-c2cnn3cc(C(C)(C)O)ccc23)cc(OC(F)F)c1C(=O)N[C@@H]1C[C@@H]1F` [Cpd 227, 2-(difluoromethoxy)-N-[(1R,2S)-2-fluorocyclopropyl]-4-[6-(1-hydroxy-1-methyl-ethyl)pyrazolo[1,5-a]pyridin-3-yl]-6-methoxy-benzamide], the maximal fold induction in assay [1] was in the range of 1.5 to 4.5. Further, in assay [2], the EC50 lay in the range of 100 to 1000 nM.
